ChEMBL document CHEMBL1131706, “S1319: a novel beta2-andrenoceptor agonist from a marine sponge Dysidea sp” (Bioorg Med Chem Lett, 1999)

Tests used:
Cavia porcellus = species: Cavia porcellus; assay: Compound was tested for the ability to relax histamine induced contraction of isolated trachea; format: functional
[1] = molecular target: Beta-1 adrenergic receptor (Homo sapiens, UniProt P08588)
Description: Compound was tested for its binding affinity to human Beta-1 adrenergic receptor by using the radioligand [3H]CGP-12177

[2] = molecular target: Beta-2 adrenergic receptor (Homo sapiens, UniProt P07550)
Chain of Beta-2 adrenergic receptor (P07550 whole entry): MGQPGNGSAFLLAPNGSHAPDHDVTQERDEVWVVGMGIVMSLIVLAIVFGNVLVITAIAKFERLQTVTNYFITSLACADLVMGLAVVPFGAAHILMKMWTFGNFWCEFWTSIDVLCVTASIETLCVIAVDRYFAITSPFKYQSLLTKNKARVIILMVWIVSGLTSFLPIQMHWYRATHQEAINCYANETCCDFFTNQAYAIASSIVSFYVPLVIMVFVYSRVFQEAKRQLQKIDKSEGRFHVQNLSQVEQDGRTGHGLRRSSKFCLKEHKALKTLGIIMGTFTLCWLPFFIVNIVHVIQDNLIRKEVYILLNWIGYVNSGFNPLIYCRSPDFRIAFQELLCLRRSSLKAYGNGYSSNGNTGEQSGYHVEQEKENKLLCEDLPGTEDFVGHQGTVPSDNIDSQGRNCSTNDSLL
Description: Compound was tested for its binding affinity to human Beta-2 adrenergic receptor by using the radioligand [3H]CGP-12177

Chain of Beta-1 adrenergic receptor (P08588 whole entry): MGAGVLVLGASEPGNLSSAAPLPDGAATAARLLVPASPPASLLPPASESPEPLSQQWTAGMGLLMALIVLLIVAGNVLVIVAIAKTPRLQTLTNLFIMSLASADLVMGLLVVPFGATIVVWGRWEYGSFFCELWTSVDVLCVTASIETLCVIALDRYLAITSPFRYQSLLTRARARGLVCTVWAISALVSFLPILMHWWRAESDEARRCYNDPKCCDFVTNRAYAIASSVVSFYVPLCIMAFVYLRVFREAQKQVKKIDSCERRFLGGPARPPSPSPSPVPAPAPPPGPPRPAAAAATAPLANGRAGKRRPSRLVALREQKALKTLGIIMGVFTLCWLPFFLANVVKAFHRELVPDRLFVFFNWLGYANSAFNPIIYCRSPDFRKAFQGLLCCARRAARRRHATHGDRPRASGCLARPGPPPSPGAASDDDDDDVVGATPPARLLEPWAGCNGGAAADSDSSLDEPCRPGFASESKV

SMILES: CNCC(O)c1ccc(O)c2nc(O)sc12 (centres undefined)
- pD2 (Cavia porcellus): 10.6
- Kd [1]: 0.12 µM
- Kd [2]: 0.051 µM

SMILES: CNCC(O)c1ccc(OC)c2c1sc(=O)n2C (centres undefined)
- pD2 (Cavia porcellus): 7.08
